Holding throughout (type): cell-based, Candida albicans
Data set [1] deals with C. albicans SC5314. Put plainly: Initial peptide uptake rate. The settings on record: SC 5314; cells grown in YNB-SG; 50 mM potassium phosphate buffer (pH 5.0 or 6.5) + 1% glucose, 30°C, 100 μM peptide, residual peptide by TNBS A420, slope 0- to 10-min. The method, then:
(§1) Yeast cells grown exponentially in the YNB-SG medium were harvested by centrifugation (3000 ×g, 5 min), washed with 50 mM potassium phosphate buffer (pH 5.0 or 6.5), and suspended in the same buffer containing 1% glucose, to a final cell density corresponding to A660 ≅ 1.0. The cell suspension was incubated at 30°C. After 10 min, an oligopeptide solution was added, to give a final concentration of 100 μM. At that moment and at 5 min intervals thereafter, 2 mL samples of the cell suspension were withdrawn, immediately filtered through the Whatman GF/A filters and the filtrates were used to determine the residual peptide concentration. Then, the 1 mL portions of the filtrates were taken and combined with 1.25 mL aliquots of a solution containing 4% Na2B4O7 × 10 H2O and 0.8 mg mL^-1 of 2,4,6-trinitrobenzenesulfonate. The reaction was carried out at 37°C for 30 min. The A420 values were measured and the peptide concentration was read from the appropriate standard curve. Data were plotted as nanomoles of an oligopeptide, taken up by 1 mg (dry weight) of cells versus time. The initial uptake velocities were determined from the slopes of the linear part of the curves, in the 0- to 10-min region.

In data set [2] the test system is C. albicans opt1Δ. Put plainly: Initial peptide uptake rate. The settings on record: 50 mM potassium phosphate buffer (pH 5.0 or 6.5) + 1% glucose, 30°C, 100 μM peptide, TNBS A420, slope 0- to 10-min. The method, then: as §1
For data set [3], the system named is C. albicans opt1–opt5Δ ptr2Δ ptr22Δ. Put plainly: Initial peptide uptake rate. The settings on record: 50 mM potassium phosphate buffer (pH 5.0 or 6.5) + 1% glucose, 30°C, 100 μM peptide, TNBS A420, slope 0- to 10-min. The procedure: as §1
The subject of data set [4] is C. albicans opt1–opt5Δ. Put plainly: Initial peptide uptake rate. To be noted: 50 mM potassium phosphate buffer (pH 5.0 or 6.5) + 1% glucose, 30°C, 100 μM peptide, TNBS A420, slope 0- to 10-min. The method, then:
as §1

Data set [5] relates to C. albicans opt2Δ opt3Δ. Put plainly: Initial peptide uptake rate. The settings on record: 50 mM potassium phosphate buffer (pH 5.0 or 6.5) + 1% glucose, 30°C, 100 μM peptide, TNBS A420, slope 0- to 10-min. The method, then: as §1
Data set [6] has as its system C. albicans opt4Δ. Put plainly: Initial peptide uptake rate. To be noted: 50 mM potassium phosphate buffer (pH 5.0 or 6.5) + 1% glucose, 30°C, 100 μM peptide, TNBS A420, slope 0- to 10-min. The procedure:
as §1

The subject of data set [7] is C. albicans opt5Δ. As to the kind of experiment: Initial peptide uptake rate. To be noted: 50 mM potassium phosphate buffer (pH 5.0 or 6.5) + 1% glucose, 30°C, 100 μM peptide, TNBS A420, slope 0- to 10-min. The procedure: as §1
The subject of data set [8] is C. albicans ptr2Δ ptr22Δ. As to the kind of experiment: Initial peptide uptake rate. The settings on record: 50 mM potassium phosphate buffer (pH 5.0 or 6.5) + 1% glucose, 30°C, 100 μM peptide, TNBS A420, slope 0- to 10-min. The method, then:
as §1

The subject of data set [9] is C. albicans isolates NF1-3 and LNF1-3. Put plainly: Initial peptide uptake rate by isolates resistant to F2/F3. To be noted: all six isolates NF1-3, LNF1-3; Figure 4. The method, then: as §1
It is therefore clear that the diminished sensitivity of all six isolates to F2 and F3 was due to the reduced uptake, most likely by permease(s) of the PTR system.

Where a SMILES comes first, the peptide text is derived from it.

With “Ala-Ala-Ala [(Ala)3, reference compound]”, the “Uptake rate ± SD” value in data set [1] is 5.62 ± 0.33 nmol min^-1 (mg dry weight)^-1; in data set [2], 4.89 ± 0.28 nmol min^-1 (mg dry weight)^-1; in data set [3], <0.1 nmol min^-1 (mg dry weight)^-1; in data set [4], 4.99 ± 0.36 nmol min^-1 (mg dry weight)^-1; in data set [5] it was 4.16 ± 0.22 nmol min^-1 (mg dry weight)^-1; in data set [6], 3.22 ± 0.27 nmol min^-1 (mg dry weight)^-1. In addition, the results for the “Uptake rate ± SD” value in [7] and in data set [8] were 3.61 ± 0.30 nmol min^-1 (mg dry weight)^-1 and <0.1 nmol min^-1 (mg dry weight)^-1, respectively. Further, the “Initial uptake rate relative to wild type SC5314 cells” value in [9] is “lower”.

For the compound “Ala-Ala-Ala-Ala [(Ala)4, model alanyl oligopeptide, reference compound]”, the “Uptake rate ± SD” value in data set [1] is 3.75 ± 0.19 nmol min^-1 (mg dry weight)^-1; in data set [2], 0.79 ± 0.09 nmol min^-1 (mg dry weight)^-1; in data set [3], <0.1 nmol min^-1 (mg dry weight)^-1; in data set [4] it was 0.12 ± 0.02 nmol min^-1 (mg dry weight)^-1; in [5], 1.93 ± 0.15 nmol min^-1 (mg dry weight)^-1; in data set [6] it was 1.72 ± 0.11 nmol min^-1 (mg dry weight)^-1. For the same compound, the “Uptake rate ± SD” value in [7] is reported as 1.55 ± 0.11 nmol min^-1 (mg dry weight)^-1; in data set [8], 2.72 ± 0.16 nmol min^-1 (mg dry weight)^-1. The “Initial uptake rate relative to wild type SC5314 cells” value in data set [9] was “nearly the same or even somewhat higher”.

Consider `CSCC[C@H](NC(=O)[C@@H](NC(=O)[C@@H]1CCCN1C(=O)[C@H](CC(C)C)NC(=O)[C@@H](N)CCCCN)C(C)C)C(=O)O` [Peptide P5, Lys-Leu-Pro-Val-Met, reference compound] (H-KLPVM-OH), for which the “Uptake rate ± SD” value in data set [1] is reported as 2.66 ± 0.19 nmol min^-1 (mg dry weight)^-1; in [2] it was 2.01 ± 0.16 nmol min^-1 (mg dry weight)^-1; in [3] it was 0.15 ± 0.04 nmol min^-1 (mg dry weight)^-1; in data set [4] it was 0.39 ± 0.07 nmol min^-1 (mg dry weight)^-1; in [5] it was 0.52 ± 0.08 nmol min^-1 (mg dry weight)^-1; in data set [6] it was 1.95 ± 0.13 nmol min^-1 (mg dry weight)^-1. Besides, the “Uptake rate ± SD” value is listed as 1.82 ± 0.11 nmol min^-1 (mg dry weight)^-1 in data set [7] and 2.56 ± 0.18 nmol min^-1 (mg dry weight)^-1 in [8].
